Data on one molecule can be found in patent US8568969B2, “RBP4 in insulin sensitivity/resistance, diabetes, and obesity” (Beth Israel Deaconess Medical Center, Inc., priority 2003, dated 2013).

Data set [1] relates to ob/ob mice. Description: IPGTT in ob/ob mice treated with fenretinide. In kind it is in vivo, mouse. The method, then: IPGTT (2 mg/g body weight) was performed on mice (12 weeks old) after 8 weeks of diet/treatment (FIG. 26A). Plasma glucose was measured at the indicated times; the open circles represent ob/+, the closed circles represent ob/ob mice and the open squares represent ob/ob mice treated with fenretinide.
IPGTT (1 mg/g body weight) was performed on mice (42 weeks old). After 38 weeks of diet/treatment (FIG. 26B), plasma glucose was measured at the indicated times; the closed squares are ob/+, the closed circles are ob/+ mice treated with fenretinide; open squares are ob/ob and open circles are ob/ob treated with fenretinide.

A further data set has as its target RBP4 with TTR (Homo sapiens, UniProt P02753). Particulars: cited from earlier work.
Data set [2] deals with obese mice on a high fat diet (HFD). As to the kind of experiment: Glucose tolerance test (GTT) in mice on high fat diet. In kind it is in vivo, mouse. As to conditions: HFD with 0.04% fenretinide for 16 weeks, 2 g/kg glucose. The method, then:
(§1) Plasma glucose was measured by glucometer (One Touch Ultra, Lifescan). Insulin (crystal chemical), FFAs (Wako) and adipokines (leptin, adiponectin, and resistin) (LINCO research) were measured using commercially available kits. ITT was performed by i.p. injection of recombinant regular human insulin 3-4 hours after food removal. Different insulin doses were used for different mouse lines and ages as described. GTT was performed by i.p. injection of glucose (1 or 2 g D-glucose per kg body weight) after overnight fasting.
(§2) To determine the effect of RBP4 independently of transgenic manipulation, adult FVB mice were treated with fenretinide (4-hydroxyphenyl retinamide, 4-HPR), a synthetic retinoid originally designed for cancer therapy. […] Three-week old male FVB mice received chow diet, high fat diet or high fat diet supplemented with 0.04% fenretinide. Fenretinide gel capsules were emptied and added directly to the fat soluble vitamin component of the Harlan-Teklad laboratory high fat diet in at the time of diet preparation. Light exposure was minimized during fenretinide high fat diet preparation. Fenretinide high fat diet was stored in the dark at 4° C. and were placed in mouse cages at 2-3 day intervals. […] Thus, both genetic and pharmacological interventions that decrease RBP4 levels improve insulin sensitivity even in obesity.

A further data set has as its target T1, serum RBP4 (Mus musculus, UniProt Q00724).
T1 construct: from tissue; host or cells: mouse serum (FVB and AG4KO mice)
Description: Serum RBP4 levels (immunoblot) in mice fed high fat diet with fenretinide. Type of data set: in vivo. Particulars: oral, 0.04% fenretinide in high fat diet, FVB mice. The method, then: Serum or plasma RBP4 was measured by diluting the serum or plasma 20 times in a standard detergent-containing buffer, separated by 15% SDS-PAGE, and transferred to nitrocellulose (Kim, Y. B., et al. Diabetes 48:310-320 (1999)). Mouse RBP4 and human RBP4 were detected using anti-rat or anti-human (DAKO, Germany) polyclonal antisera, respectively, followed by standard ECL detection.
as §2

Data set [3] relates to obese mice on a high fat diet (HFD). As to the kind of experiment: Insulin tolerance test (ITT) in mice on high fat diet. In kind it is in vivo, mouse. As to conditions: HFD with 0.04% fenretinide, 15 weeks of treatment, 1.1 U/kg insulin. The protocol: as §1, §2
Data set [4] concerns ob/ob mice. As to the kind of experiment: Long-term mortality of ob/ob mice. Type of data set: in vivo, mouse. As to conditions: 10 months of treatment, compared to untreated controls. An excerpt: The ob/ob mice at 10 months of age were severely obese.
Data set [5] in a line: Food intake, body weight and obesity on high fat diet. In kind it is in vivo, mouse. As to conditions: 0.04% fenretinide in high fat diet, FVB mice. The method, then: as §2
Another data set relates to RXR isoforms. Particulars: in vitro; cited from earlier work.

With `CC1=C(/C=C/C(C)=C/C=C/C(C)=C/C(=O)Nc2ccc(O)cc2)C(C)(C)CCC1` [fenretinide, 4-hydroxyphenyl retinamide], in the data set with ob/ob mice [1] (ob/ob mice 12 weeks old, 8 weeks of treatment, 2 mg/g body weight), the “glucose tolerance (IPGTT)” value is “greatly improved their glucose tolerance”. For the same molecule, the “glucose disposal (IPGTT)” value in the data set with ob/ob mice [1] (ob/ob mice 42 weeks old, 38 weeks of treatment, 1 mg/g body weight) is reported as “improve glucosed disposal to nearly that of heterozygous mice”. Further, the “interaction of RBP4 with TTR” value at RBP4 with TTR is “disrupts the interaction of RBP4 with TTR”. Also, the “glucose tolerance (GTT)” value in data set [2] was “normalized glucose tolerance”. The “serum RBP4 levels” value at serum RBP4 is recorded as “lowered serum RBP4 levels in obese mice on a high fat diet (HFD) to the level of non-obese control mice on a chow diet”. Besides, the “insulin sensitivity (ITT)” value in data set [3] is on record as “improved insulin sensitivity”. Further, the long term mortality entry in the data set on ob/ob mice [4] was “reduced by almost half”. Moreover, in data set [5], the body weight result was “did not affect”, the “development of obesity on the high fat diet” value was “did not affect” and the food intake entry is reported as “did not affect”. Besides, the “activation of RXR isoforms” value in the data set with RXR isoforms is listed as “does not activate”.
